# System: A-431
# Assay: Cytotoxicity against human A431 cells after 4 days by coulter counting
# Format: functional, cell-based
# Conditions: A-431, 96 h
row,Structure (SMILES),IC50
1,C=C[C@@]1(C)CC[C@H](/C(C)=C/C=C/C(C)(C)O)C[C@@H]1C(=C)C [FUSCOL],0.52 µM
2,C/C1=C\C[C@@H](C2=CC[C@H](C(C)(C)O)OC2)CC/C(C)=C/CC1 [CYCLOLOBATRIENE],0.64 µM
3,C=C[C@@]1(C)CC[C@H](C2=CC[C@H](C(C)(C)O)OC2)C[C@@H]1C(=C)C [LOBATRIENE],0.41 µM
4,C/C1=C\C[C@@H](/C(C)=C/C=C/C(C)(C)O)CC/C(C)=C/CC1 [EUNICOL],0.35 µM

# From ChEMBL document CHEMBL1926524, “Cyclolobatriene, a novel prenylated germacrene diterpene, from the soft coral Lobophytum pauciflorum” (Bioorg Med Chem, 2012)
